These results are taken from the supplement of paper PMC11781733.

What all share (details): exposure time: 15 min to 3 h acute
For assay [1], the system named is Dugesia japonica. Description: crawl-out incidence (% planarians); higher = higher incidence or increase relative to vehicle control. The method, then:
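Adult asexual Dugesia japonica planarians (1 per well, 48-well plate, n=24 over technical triplicates) were exposed acutely (15 min to 3 h) to each compound (0.5% DMSO or water vehicle) and screened on a robotic platform for crawl-out, stickiness, body shape, phototaxis, noxious-heat scrunching and locomotion endpoints. Binary endpoints are incidence rate x100. Continuous endpoints are the median response normalised to the plate vehicle median, as % change or difference. Negative incidences after vehicle subtraction were set to 0.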

For assay [2], the system named is Dugesia japonica. Description: corkscrew incidence (% planarians (vehicle-normalised)); higher = higher incidence or increase relative to vehicle control. The procedure, abridged:
(§1)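 In sealed 48-well plates holding one D. japonica planarian per well in 200 μL, worms fasted 5–7 days were exposed to at least 5 concentrations and screened within 15 minutes–3 hours. Contraction, C-shape, corkscrew and hyperkinesis were scored manually by a blinded researcher, and crawled-out worms were dropped. For each shape or for any abnormal shape, incidence is given ×100 after normalisation to vehicle controls on the plate, with negatives at 0.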

The subject of assay [3] is Dugesia japonica. Kind of assay: loss of heat-induced scrunching incidence (% planarians (vehicle-normalised)); higher = higher incidence or increase relative to vehicle control. The procedure, abridged:
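D. japonica planarians (fasted 5–7 days), one per well in 200 μL in sealed 48-well plates, were exposed to at least 5 concentrations (n = 24 per concentration, technical triplicates). They were tested within 15 minutes–3 hours for scrunching in response to a noxious heat stimulus; worms that crawled out were excluded. The value is the incidence ×100 of worms without scrunching, normalised to in-plate vehicle controls, with negatives set to 0.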

In assay [4] the test system is Dugesia japonica. Kind of assay: resting fraction in blue light vs vehicle (difference in fraction x100 vs vehicle); higher = higher incidence or increase relative to vehicle control. The gist of the method: (§2)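 Resting fraction in the dark or under blue light was measured by automated tracking of intact, fasted Dugesia japonica, one per well of a 48-well plate in 200 μL. Worms were tested 15 min to 3 h after exposure in 0.5% DMSO or water vehicle. Eight worms per concentration per plate were run in technical triplicate (n = 24). The plate's vehicle median was subtracted from each worm, the difference was multiplied by 100, and the median is reported; worms that crawled out were excluded.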

The subject of assay [5] is Dugesia japonica. Description: stickiness incidence (% planarians (vehicle-normalised)); higher = higher incidence or increase relative to vehicle control. The procedure, abridged: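 In the Stickiness assay, fasted Dugesia japonica planarians were each placed in one well of a sealed 48-well plate containing 200 μL of solution, with 0.5% DMSO or water as vehicle. Testing took place 15 min–3 h after exposure to half- or quarter-log concentration series. Stickiness was recorded as a binary endpoint, and its incidence was expressed relative to in-plate vehicle incidence after pooling technical triplicates and removing worms that crawled out. Negative values were set to 0 and all values were multiplied by 100.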

The subject of assay [6] is Dugesia japonica. Description: speed in dark vs vehicle (% change vs vehicle); higher = higher incidence or increase relative to vehicle control. The method, then: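 Adult asexual Dugesia japonica planarians (1 per well, 48-well plate, n=24 over technical triplicates) were exposed acutely (15 min to 3 h) to each compound (0.5% DMSO or water vehicle) and screened on a robotic platform for crawl-out, stickiness, body shape, phototaxis, noxious-heat scrunching and locomotion endpoints. Binary endpoints are incidence rate x100 normalised to in-plate vehicle controls. Continuous endpoints are the median response normalised to the plate vehicle median, as % change or difference. Negative incidences after vehicle subtraction were set to 0.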

The test system of assay [7] is Dugesia japonica. Kind of assay: contracted body shape incidence (% planarians (vehicle-normalised)); higher = higher incidence or increase relative to vehicle control. The procedure, abridged:
as §1

Assay [8] has as its system Dugesia japonica. Kind of assay: pharynx extrusion incidence (% planarians (vehicle-normalised)); higher = higher incidence or increase relative to vehicle control. The gist of the method:
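Pharynx extrusion incidence in intact, fasted Dugesia japonica was scored blind and by hand as a body-shape category, then normalised to vehicle controls from the same plate. Each worm was held alone in a 48-well plate well containing 200 μL and tested 15 min to 3 h after exposure, with 0.5% DMSO or water as vehicle. Eight worms per concentration per plate were used in technical triplicate (n = 24). Negatives were set to 0, and worms that crawled out were excluded.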

The test system of assay [9] is Dugesia japonica. Kind of assay: total locomotor bursts minus vehicle (bursts difference vs vehicle); higher = higher incidence or increase relative to vehicle control. The procedure, abridged: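 Fasted Dugesia japonica planarians, one per well of a sealed 48-well plate in 200 μL solution, were tested 15 min–3 h after exposure to half- or quarter-log concentration series. The vehicle was 0.5% DMSO or water. Total locomotor bursts, an unstimulated behaviour, came from image-based object tracking, with technical triplicates totalling n = 24. Each planarian's value had the plate vehicle-control median subtracted, without ×100 scaling. The value is the median normalised response, and crawled-out worms were excluded.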

Assay [10] concerns Dugesia japonica. Kind of assay: anxiety (time in outer well region) vs vehicle (% change vs vehicle); higher = higher incidence or increase relative to vehicle control. The gist of the method:
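Sealed 48-well plates held one D. japonica planarian per well in 200 μL, with worms fasted 5–7 days beforehand and tested at at least 5 concentrations (n = 24 per concentration). Screening took place within 15 minutes–3 hours. Using object tracking in MATLAB or Python, time spent in the outer part of the well was recorded, and worms that crawled out were excluded. Responses were divided by, or reduced by, the plate vehicle median and multiplied by 100, and the median is reported.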

For assay [11], the system named is Dugesia japonica. Description: speed second 30 s blue light vs vehicle (% change vs vehicle); higher = higher incidence or increase relative to vehicle control. The gist of the method: (§3)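 Each value is the median percent change in crawling speed, with each worm normalised to the median of the vehicle worms on its plate. Intact, fasted Dugesia japonica were tracked automatically one per well in 48-well plates holding 200 μL, either in the dark or during blue-light periods. Testing ran from 15 min to 3 h after exposure, with 0.5% DMSO or water as vehicle. Eight worms per concentration per plate were run in technical triplicate (n = 24), and any worm that crawled out of the liquid was excluded.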

Assay [12] relates to Dugesia japonica. Kind of assay: hyperkinesis incidence (% planarians (vehicle-normalised)); higher = higher incidence or increase relative to vehicle control. The procedure, abridged: as §1
Assay [13] concerns Dugesia japonica. Description: any abnormal body shape incidence (% planarians (vehicle-normalised)); higher = higher incidence or increase relative to vehicle control. The gist of the method:
as §1

In assay [14] the test system is Dugesia japonica. Kind of assay: loss of phototaxis incidence (% planarians (vehicle-normalised)); higher = higher incidence or increase relative to vehicle control. The procedure, abridged: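 Loss of phototaxis was scored as a yes/no endpoint in intact, fasted Dugesia japonica using automated object tracking. Each worm was held alone in a well of a 48-well plate in 200 μL and tested 15 min to 3 h after exposure in 0.5% DMSO or water vehicle. Eight worms per concentration per plate were run in technical triplicate (n = 24), and worms that crawled out were excluded. The incidence rate ×100 was normalised to in-plate vehicle controls, with negative values set to 0.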

Assay [15] relates to Dugesia japonica. Description: speed first 30 s blue light vs vehicle (% change vs vehicle); higher = higher incidence or increase relative to vehicle control. The procedure, abridged: as §3
Assay [16] deals with Dugesia japonica. Description: resting fraction in dark vs vehicle (difference in fraction x100 vs vehicle); higher = higher incidence or increase relative to vehicle control. The gist of the method: as §2
Assay [17] has as its system Dugesia japonica. Kind of assay: C-shape incidence (% planarians (vehicle-normalised)); higher = higher incidence or increase relative to vehicle control. The procedure, abridged:
as §1

The subject of assay [18] is Dugesia japonica. Kind of assay: noxious heat displacement strength vs vehicle (% change vs vehicle); higher = higher incidence or increase relative to vehicle control. The procedure, abridged: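 Intact, fasted Dugesia japonica were held one per well in 48-well plates containing 200 μL and tested 15 min to 3 h after exposure in 0.5% DMSO or water vehicle. The scrunching assay with automated object tracking gave displacement strength under noxious heat, reported as the median percent change after normalising each worm to its plate's vehicle median. Worms that crawled out were excluded.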

Structures are written as SMILES. Structures can show the parent of a compound that is named as a salt.

As for `CNCCC(Oc1ccc(C(F)(F)F)cc1)c1ccccc1` (centres undefined) [fluoxetine hydrochloride] (1 µM), the crawl-out incidence in assay [1] is 0. In assay [2], this compound registered a corkscrew incidence of 0. Besides, the “loss of heat-induced scrunching incidence” value in assay [3] was determined as 8.33. Moreover, the “resting fraction in blue light” value in [4] was -1.64. Moreover, the stickiness incidence in [5] stood at 4.17. The speed in dark in assay [6] turned out to be 33.6. Moreover, the “contracted body shape incidence” value in assay [7] worked out at 0. The compound further showed a pharynx extrusion incidence in assay [8] of 0. Also, the “total locomotor bursts minus vehicle” value in assay [9] was -7. Also, in assay [10], the anxiety is 6.17. In addition, the “speed second 30 s blue light” value in assay [11] turned out to be 14.9. Moreover, the hyperkinesis incidence in assay [12] worked out at 0. Moreover, in assay [13], the “any abnormal body shape incidence” value turned out to be 0. Further, the “loss of phototaxis incidence” value in assay [14] was ≤ 0. Moreover, the “speed first 30 s blue light” value in assay [15] stood at 33.5. In addition, the “resting fraction in dark” value in assay [16] was -9.67. This compound displayed a C-shape incidence in assay [17] of 0. For the same compound, the “noxious heat displacement strength” value in assay [18] was 12.

As to `O=C1CC2(CCCC2)CC(=O)N1CCCCN1CCN(c2ncccn2)CC1` [buspirone] (1 µM), in assay [1], the crawl-out incidence worked out at 0. Further, the corkscrew incidence in assay [2] came to 0. Besides, in assay [3], the “loss of heat-induced scrunching incidence” value is ≤ 0. Moreover, the “resting fraction in blue light” value in assay [4] is 4.28. Besides, in assay [5], the stickiness incidence was ≤ 0. This compound also yielded a speed in dark in assay [6] of 11.8. Further, the “contracted body shape incidence” value in [7] turned out to be 0. The same compound gave a pharynx extrusion incidence in assay [8] of 0. In addition, in assay [9], the “total locomotor bursts minus vehicle” value amounted to 0.5. The same compound displayed an anxiety in assay [10] of 3.11. For the same compound, the “speed second 30 s blue light” value in [11] is -19.1. This compound also showed a hyperkinesis incidence in assay [12] of 8.33. Also, in [13], the “any abnormal body shape incidence” value was 12.5. For the same compound, in assay [14], the “loss of phototaxis incidence” value was 16.7. Moreover, the “speed first 30 s blue light” value in assay [15] was -6.54. In addition, the “resting fraction in dark” value in [16] is -6.06. The compound further displayed a C-shape incidence in assay [17] of 4.17. The “noxious heat displacement strength” value in [18] was -21.9.

In assay [1], `CN1CCN(CCCN2c3ccccc3Sc3ccc(Cl)cc32)CC1` [prochloroperazine] (1 µM) had a crawl-out incidence of 4.17. Also, the corkscrew incidence in assay [2] worked out at 0. The “loss of heat-induced scrunching incidence” value in assay [3] is 26.1. Also, in assay [4], the “resting fraction in blue light” value is 5.37. The stickiness incidence in assay [5] is ≤ 0. Further, in assay [6], the speed in dark is -31. Moreover, in assay [7], the “contracted body shape incidence” value came to 0. The same compound showed a pharynx extrusion incidence in assay [8] of 0. In addition, in assay [9], the “total locomotor bursts minus vehicle” value was found to be 10.5. The anxiety in assay [10] was 9.41. In addition, the “speed second 30 s blue light” value in [11] was -13.4. In addition, the hyperkinesis incidence in assay [12] is 4.35. In addition, in assay [13], the “any abnormal body shape incidence” value is 4.35. For the same compound, the “loss of phototaxis incidence” value in assay [14] amounted to 4.35. The “speed first 30 s blue light” value in assay [15] was -22.6. Besides, in assay [16], the “resting fraction in dark” value stood at 7.43. The same compound came in with a C-shape incidence in [17] of 0. Moreover, in assay [18], the “noxious heat displacement strength” value is -10.7.
